# Laboratory results reported in the supplement of paper PMC12317010.
# Where a name gives a salt, the structure may show the parent alone.
# Test: collision cross section in nitrogen (drift tube, single-field); higher = larger gas-phase ion size
# [1] = ion type: [M+H], ion source: APCI, ion mode: Positive
# [2] = ion type: [M+H], ion source: ESI, ion mode: Positive
# [3] = ion type: [M+Na], ion source: ESI, ion mode: Positive
# [4] = ion type: [M-H], ion source: ESI, ion mode: Negative
# [5] = ion type: [M+], ion source: APCI, ion mode: Positive
# 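Also: chemical standards at 10 µM analysed by drift tube IMS-QTOF MS in about 3.95 torr nitrogen, mean of duplicate injections differing ≤1%, mass error below 10 ppm.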
Structure (SMILES),collision cross section in nitrogen [1],collision cross section in nitrogen [2],collision cross section in nitrogen [3],collision cross section in nitrogen [4],collision cross section in nitrogen [5]
CCN(CC)c1ccc(C(=O)c2ccccc2C(=O)O)c(O)c1 [2-[4-(Diethylamino)-2-hydroxybenzoyl]benzoic acid],177.2 Å²,177.1 Å²,187.1 Å²,179.8 Å²,–
COC1=CC(=O)C[C@@H](C)[C@]12Oc1c(Cl)c(OC)cc(OC)c1C2=O [Griseofulvin],182 Å²,181.6 Å²,189.6 Å²,–,–
Cc1ccc(S(=O)(=O)C(I)I)cc1 [Diiodomethyl 4-methylphenyl sulfone],–,–,–,151.9 Å²,–
CCC(C)(c1ccc(O)cc1)c1ccc(O)cc1 [Bisphenol B],–,–,–,165.8 Å²,–
"Nc1cc(Cl)c(-c2cc(Cl)c(N)cc2Cl)cc1Cl [2,2',5,5'-Tetrachlorobenzidine]",–,–,–,167.6 Å²,164.9 Å²
CSC(C)=NOC(=O)N(C)SN(C)C(=O)ON=C(C)SC [Thiodicarb],–,–,190.7 Å²,–,–
O=C(Nc1ccc(Br)cc1)c1cc(Br)cc(Br)c1O [Tribromsalan],–,–,–,173.7 Å²,–
O=C(O)C[C@H](O)C[C@H](O)/C=C/c1c(C2CC2)nc2ccccc2c1-c1ccc(F)cc1 [Pitavastatin calcium],202.3 Å²,203.2 Å²,196.7 Å²,207.8 Å²,–
O=S(=O)(O)c1ccc(O)c2ncccc12 [8-Hydroxyquinoline-5-sulfonic acid hydrate (1:x)],–,146.7 Å²,–,142.4 Å²,–
O=C(Nc1ccc2[nH]ccc2c1)c1cc2cc(F)ccc2n1Cc1cccc(F)c1,195.9 Å²,195.7 Å²,202.1 Å²,193.8 Å²,–
Cc1ccn2nc(S(=O)(=O)Nc3c(F)cccc3F)nc2n1 [Flumetsulam],167.4 Å²,167.7 Å²,176.7 Å²,172.5 Å²,–
CO/C=C(/C(=O)OC)c1ccccc1COc1cccc(C(F)(F)F)n1 [Picoxystrobin],–,–,179.3 Å²,–,–
CCCCC(CC)COC(=O)CCCCCCCC(=O)OCC(CC)CCCC (stereo not given) [Bis(2-ethylhexyl) nonanedioate],–,–,222.3 Å²,–,–
CCCCCCC(CCCCCCCCCCC(=O)OCC(COC(C)=O)OC(C)=O)OC(C)=O (stereo not given) [Grinstad Soft-N-Safe],–,–,225.2 Å²,–,–
O=S(=O)(O)C(F)(F)F [Trifluoromethanesulfonic acid],–,–,–,110.8 Å²,–
O=c1c(O)c(-c2ccc(O)c(O)c2)oc2cc(O)cc(O)c12 [Quercetin],–,–,–,164.7 Å²,–
CCCOC(=O)NCCCN(C)C [Propamocarb],142.9 Å²,143.3 Å²,–,–,–
O=C1CC(c2ccc(O)cc2)Oc2cc(O)cc(O)c21 (racemic) [(+/-)-Naringenin],–,–,–,163.9 Å²,–
"CCCCNc1ccc(NCCCC)c2c1C(=O)c1ccccc1C2=O [1,4-Bis(butylamino)anthracene-9,10-dione]",192.4 Å²,192.8 Å²,207.7 Å²,–,190.2 Å²
Cc1c(N(C)C)c(=O)n(-c2ccccc2)n1C [4-Dimethylaminoantipyrine],152.1 Å²,152.5 Å²,166.2 Å²,–,–
"CCOP(=O)(CN(CCO)CCO)OCC [Diethyl (N,N-bis(2-hydroxyethyl)amino)methanephosphonate]",153.5 Å²,153.9 Å²,156.5 Å²,157.5 Å²,–
N#Cc1nn(-c2c(Cl)cc(C(F)(F)F)cc2Cl)c(N)c1S(=O)C(F)(F)F (stereo not given) [Fipronil],–,–,–,178.1 Å²,–

Structure (SMILES),collision cross section in nitrogen [1],collision cross section in nitrogen [2],collision cross section in nitrogen [3],collision cross section in nitrogen [4],collision cross section in nitrogen [5]
CN1COCN(Cc2cnc(Cl)s2)C1=N[N+](=O)[O-] [Thiamethoxam],159.9 Å²,–,162.1 Å²,158.3 Å²,–
"Oc1ccccc1Cc1ccccc1O [2,2′-Methylenebis[phenol]]",–,–,–,142.9 Å²,–
CCN(CC)CCNc1ccc(CNC=O)c2sc3ccc(OC)cc3c(=O)c12,196.9 Å²,197 Å²,198.8 Å²,–,–
"C1CN(CCOCCN2CCOCC2)CCO1 [4,4'-(Oxydiethylene)bis(morpholine)]",151.8 Å²,152.2 Å²,156.9 Å²,–,–
CNC(=O)N(C)c1nc2ccccc2s1 [Methabenzthiazuron],144.2 Å²,144.7 Å²,–,–,–
CC(C)c1ccc2c(c1)CC[C@H]1[C@](C)(CN)CCC[C@]21C [Dehydroabietylamine],–,188.3 Å²,–,–,–
"O=C1NC(=O)C(c2ccccc2)(c2ccccc2)N1 [5,5-Diphenylhydantoin]",–,–,–,160 Å²,–
c1ccc(CNc2ncnc3c2ncn3C2CCCCO2)cc1 (stereo not given) [N-Benzyl-9-(tetrahydro-2H-pyran-2-yl)adenine],177.9 Å²,176.5 Å²,189.3 Å²,185.6 Å²,–
Cc1oc2c(NC(=O)c3c(Cl)cccc3Cl)cccc2c1C(C)(C)O,–,186.3 Å²,190.9 Å²,191.5 Å²,–
"COc1cc(NC(=O)CC(C)=O)c(OC)cc1Cl [4'-Chloro-2',5'-dimethoxyacetoacetanilide]",–,160.8 Å²,168.5 Å²,161.1 Å²,156.7 Å²
CC1=NN(c2ccc(S(=O)(=O)O)cc2)C(=O)C1,–,162.7 Å²,–,159.1 Å²,–
O=C(Oc1ccc(O)cc1)c1ccccc1 [4-Hydroxyphenyl benzoate],–,–,–,154.7 Å²,–
CCCCCCCCCc1ccc(O)cc1 [4-Nonylphenol],–,–,–,161.4 Å²,–
CC(C)(CO)COC(=O)C(C)(C)CO,–,–,151.6 Å²,–,–
CCCCOC(=O)CC(O)(CC(=O)OCCCC)C(=O)OCCCC [Tributyl citrate],–,–,202.7 Å²,–,–
COC(=O)C1=C(C)NC(C)=C(C(=O)OCC(C)C)C1c1ccccc1[N+](=O)[O-] (stereo not given) [Nisoldipine],–,–,195.5 Å²,–,–
N=C(N)c1ccc(OCCCCCOc2ccc(C(=N)N)cc2)cc1 [Pentamidine],176.9 Å²,–,–,–,–
"CC(C)Nc1ccc(NC(C)C)c2c1C(=O)c1ccccc1C2=O [1,4-Bis(N-isopropylamino)anthraquinone]",179.1 Å²,179.4 Å²,–,–,178.2 Å²
Nc1ccc2c(O)cc(S(=O)(=O)O)cc2c1 [7-Amino-4-hydroxynaphthalene-2-sulfonic acid],–,–,–,153.3 Å²,–
C=CC(=O)NC(C)(C)CS(=O)(=O)O [2-Acrylamido-2-methyl-1-propanesulfonic acid],–,–,–,141.5 Å²,–
Nc1c(Cl)c(Cl)c(Cl)c(Cl)c1Cl [Pentachloroaniline],–,–,–,138.4 Å²,–
C=CC(=O)OCC(CO)(COCC(COC(=O)C=C)(COC(=O)C=C)COC(=O)C=C)COC(=O)C=C [Dipentaerythritol pentaacrylate],–,–,217.9 Å²,–,–

Structure (SMILES),collision cross section in nitrogen [1],collision cross section in nitrogen [2],collision cross section in nitrogen [3],collision cross section in nitrogen [4],collision cross section in nitrogen [5]
OC[C@@H](O)[C@@H](O)[C@H](O)[C@H](O)CO [D-Mannitol],–,–,141.5 Å²,132.5 Å²,–
CN(C)CCN(Cc1cccs1)c1ccccn1 [Methapyrilene fumarate],–,157.8 Å²,160.3 Å²,–,–
OC12N=C(c3ccccc3)SC1Cc1cc(Cl)ccc12 (stereo not given) [HMR1426],167.8 Å²,167.9 Å²,–,–,–
ClC(c1ccccc1)(c1ccccc1)c1ccccc1 [Trityl chloride],162.5 Å²,–,–,–,–
OCCOCCOCCO [Triethylene glycol],–,–,131.5 Å²,–,–
"O=C1NC(=O)c2cccc3cccc1c23 [1H-Benzo[de]isoquinoline-1,3(2H)-dione]",–,–,–,140.8 Å²,–
CCCCCCCCCCCCN [1-Dodecanamine],–,164 Å²,–,–,–
CCOP(=S)(OCC)SCS(=O)(=O)C(C)(C)C [Terbufos sulfone],–,–,171.3 Å²,–,–
Nc1ccc(N=Nc2ccccc2)c(N)c1 [C.I. Basic Orange 2],150.7 Å²,151.2 Å²,–,149.6 Å²,–
Clc1ccc2[nH]nnc2c1 [5-Chlorobenzotriazole],–,128.5 Å²,–,123.2 Å²,–
CCCCCCOC(=O)CCCCCCCC(=O)OCCCCCC [Dihexyl nonanedioate],–,–,210.8 Å²,–,–
CCCN(CCC)S(=O)(=O)c1ccc(C(=O)O)cc1 [Probenecid],–,–,–,172.9 Å²,–
CC(Cl)COP(=O)(OCC(C)Cl)OCC(C)Cl (stereo not given) [Tris(2-chloropropyl) phosphate],–,–,171.4 Å²,–,–
CCCC(CCC)C(=O)O [Valproic acid],–,–,–,137.1 Å²,–
O=C1OC2(c3ccccc31)c1ccc(O)c(Br)c1Oc1c2ccc(O)c1Br [C.I. Solvent Red 72],186.2 Å²,185 Å²,205.5 Å²,190.5 Å²,–
NS(=O)(=O)O [Sulfamic acid],–,–,–,112 Å²,–
Cc1[nH]cnc1C[C@H]1CCc2c(C)c3ccccc3n2C1=O [Fabesetron hydrochloride],175.1 Å²,174.8 Å²,–,–,–
CSc1nc(N=[N+]=[N-])nc(NC(C)C)n1 [Aziprotryne],149.1 Å²,148.9 Å²,–,–,–
"CCCCCCCCSCc1cc(C)c(O)c(CSCCCCCCCC)c1 [2-Methyl-4,6-bis[(octylthio)methyl]phenol]",–,–,–,208 Å²,–
N[C@@H](CCC(=O)O)C(=O)O [Sodium L-glutamate hydrate],–,–,–,125.4 Å²,–
COC(=O)Nc1nc2ccccc2[nH]1 [Carbendazim],138.7 Å²,139 Å²,–,–,–
